This data set can be described thus: Fluorescence quenching of n-AS probes in MLVs of EPC (drug location). The data set is classed as physicochemical. The note with it: MLVs of EPC labeled with n-AS probes. The procedure: Three independent experiments were carried out.
This type of fluorescence quenching can be described by the Stern-Volmer linear plots (Equation 5 and Figures 7A,B) where the fluorescence emission intensities of the labeled nanocarrier in the absence (I0) and in the presence (I) of the quencher (drugs) are plotted against the quencher concentration [Q] and it is possible to obtain linear relations in which the intercept is zero and the slope corresponds to Stern-Volmer constant, KSVapp (Lakowicz, [2014]):
The Stern-Volmer plots of the fluorescence quenching provoked by increasing concentrations of Indomethacin are not linear and present positive deviations (Figure 7C). Positive deviations from the Stern-Volmer equation are often observed when the extent of quenching is large and these deviations from linearity indicate that the quenching mechanism cannot be explained solely by a collisional mechanism (Lakowicz, [2014]). There is an apparent static quenching component caused by the close proximity of deactivating drug and fluorophore at excitation moment. The quenching is still collisional, but the existence of fluorophores and quenchers located very close to each other causes an immediate fluorescence deactivation and therefore the fluorophore and the drug appear to form non-fluorescent complexes (Lakowicz, [2014]). This type of fluorescence quenching is usually interpreted in terms of a “sphere of action” (Equation 7) within which the possibility of deactivation is equal to unity (Lakowicz, [2014]).
(7) I0/I=(1+KSVapp[Q])e^[Q]Vapp
By representing graphically I0/(Ie^[Q]Vapp) as a function of [Q], linear relations were obtained in which the slope corresponds to KSVapp (Figure 7D). Thus, Indomethacin quenching efficiency followed approximately the same order as that obtained for Acemetacin: 2-AS < 6-AS < 9-AS < 12-AS.

With `COc1ccc2c(c1)c(CC(=O)OCC(=O)O)c(C)n2C(=O)c1ccc(Cl)cc1` [Acemetacin], the “Drug location within the lipid nanocarrier inferred from Kqapp” value is on record as “can reach an inner location at the lipid nanocarrier”.
The result for `COc1ccc2c(c1)c(CC(=O)O)c(C)n2C(=O)c1ccc(Cl)cc1` [Indomethacin] reads “able to reach a more inner location within the lipid nanocarrier”.
For `Cc1ccc(C(=O)c2ccc(CC(=O)O)n2C)cc1` [Tolmetin], the “Drug location within the lipid nanocarrier inferred from Kqapp” value was “preferential location of Tolmetin at the polar headgroup region of the lipid nanocarriers”.

Source of the values: PMC6080416, “Spectroscopic Studies as a Toolbox for Biophysical and Chemical Characterization of Lipid-Based Nanotherapeutics” (Frontiers in Chemistry, 2018).
